According to patent US7968097B2, “Identification of Hla-A2-presented T-cell epitopes derived from the oncofoetal antigen-immature laminin receptor protein and uses thereof” (Immatics Biotechnologies GmbH, priority 2005, dated 2011):
“And” between values parts separate entries of the source, which are not always exact repeats. Equal values may be shown once.

How the values were obtained:
[1] = test system: PBMC of HLA-A*02 positive myeloma patients; assay: IFN-γ ELISPOT, myeloma patients; conditions: for # of positively stained spots (IFN-γ ELISPOT): Myeloma patients, HLA-A*02 positive, one value per patient (table line), T cells cultured seven days with IL-2; for samples with significant (>20) CTL responses against peptide: myeloma patient samples, IFN-γ ELISPOT
Description: (§2) To determine the frequency of OFA/iLR peptide-specific T cells in patients, ELISPOT-assays were performed using the Interferon-γ-ELISPOT-Kit (Becton Dickinson, Heidelberg, Germany) according to manufacturer's instructions.
(§3) Prior to analysis, T cells from patients and healthy donors had been kept in culture for seven days in the presence of Interleukin-2 (IL microgram/10^6 PBMC/milliliter).

[2] = test system: CD8+ lymphocytes from peripheral blood of HLA-A2+ donors; assay: Tetramer analysis of microsphere driven expansion of peptide-specific CD8+ lymphocytes; assay type: cell-based, human; conditions: for Evaluable donors with clearly positive T-cell responses: of 5 evaluable HLA-A2+ donors, microspheres with anti-CD28 plus high density A*0201/peptide; for Evaluable stimulations with clearly positive T-cell responses: of 53 (RPS-001) or 54 (RPS-002) evaluable stimulations among all evaluable donors
Source text: 1×10^6 CD8+ enriched PBMCs per well of the healthy HLA-A2+ donor HBC-065 were stimulated weekly in one well with microspheres coupled to anti-CD28 plus high density tumor antigen A*0201/RPS-001 (upper panel) or high density tumor antigen A*0201/RPS-002 (lower panel) as shown before [Walter, S, et al. Cutting Edge: Predetermined avidity of human CD8 T cells expanded on calibrated MHC/anti-CD28-coated microspheres. J. Immunol. 171(10):4974-8, 2003] with minor modifications. After three stimulations in vitro, cells of both wells were stained with antibody CD8 FITC plus tetramer A*0201/RPS-001 APC and A*0201/RPS-002 PE. Cells are gated on the lymphocyte population (left and middle panel) or on the CD8+ lymphocyte population (right panel). Numbers represent percentage of tetramer^+ within CD8+ lymphocytes. RPS-001=LLAARAIVAI (SEQ ID-No. 1); RPS-002=ALCNTDSPL (SEQ ID-No. 2)
Table 6: Summary of tetramer analysis of microsphere driven expansions of A2/RPS-001 and A2/RPS-002 specific CD8^+ lymphocytes from peripheral blood. 1×10^6 CD8^+ enriched PBMCs per well were stimulated as in FIG. 12 with microspheres coupled to anti-CD28 plus high density tumor antigen A*0201/RPS-001 or high density tumor antigen A*0201/RPS-002. Indicated are number of evaluable HLA-A2^+ donors, number of evaluable donors with at least one clearly positive response, number of evaluable stimulations among all evaluable donors and number of evaluable stimulations with clearly positive responses. RPS001=LLAARAIVAI (SEQ ID-NO: 1); RPS-002=ALCNTDSPL (SEQ ID-NO: 2)

[3] = test system: hematological tumor cell lines (K562, IM9, Karpas-422, Balm-3, U266, REH, Ramos, MEC-1); assay: 51Chromium release assay, peptide-specific CTL on tumor cell lines; assay type: cell-based, human; conditions: for cytolytic activity of peptide-specific CTL lines: HLA-A*0201+ hematological tumor lines, primary malignant AML blasts and CLL cells; for recognition of cell lines by peptide-specific T cells: K562, IND/IM9, Karpas-422, Balm-3, U266, REH, MEC-1, Ramos also for ILR2
Source text: (§1) CTL derived from healthy HLA-A*0201^+ individuals were generated using a protocol described elsewhere (Zeis M, Siegel S, Schmitz M et al. Induction of cytotoxic T lymphocytes against hematologic neoplasms by survivin RNA-transfected dendritic cells. J Immunol. 2003; 170, 5391-5397.). For the induction of autologous OFA/ILR, peptide-specific CTL obtained from patients with AML and CLL, CD8^+ T cells were separated from PBMC using immunomagnetic beads (MACS®, Miltenyi, Bergisch-Gladbach, Germany), cultured with autologous OFA/iLR peptide-pulsed fully matured DC and restimulated with autologous peptide-pulsed PBMC in the presence of IL-2 (1 ng/ml, CellConcepts, Weisskirch, Germany). After at least four weekly restimulations, CTL reactivity was determined in a conventional 4 h ^51Chromium release assay. Cold target inhibition assays and antibody blocking experiments were performed as previously described (Zeis M, Siegel S, Schmitz M et al. Induction of cytotoxic T lymphocytes against hematologic neoplasms by survivin RNA-transfected dendritic cells. J Immunol. 2003; 170, 5391-5397.).
T cells recognizing the ILR1-peptide were tested on K562 [human pro-erythroblastic leukemia cell-line, also known as chronic myelogenous leukemia (CML) cell line, which, due to extremely low levels of HLA, functions as a control for excluding NK cells as effector cells], IND (human B lymphoblastoid cell line), Karpas-422 (human B cell lymphoma), Balm-3 (human non-Burkitt B-lymphoma cell line), U266 (human multiple myeloma), REH (Human B cell precursor leukemia), MEC-1 (human chronic B cell leukemia). The same T cells were used to test autologous and allogeneic PBMC from healthy donors as controls. […] The response is not directed against allogeneic major or minor histocompatibility complex antigens. • 3. ILR1 peptide is recognized in an HLA-restricted fashion. • 4. The restriction is allele-specific (specific for A*02). Target: AML
T cells recognizing the ILR2-peptide (FIG. 6) were tested on K562 [human proerythroblastic leukemia cell-line, also known as chronic myelogenous leukemia (CML) cell line, which, due to extremely low levels of HLA, functions as a control for excluding NK cells as effector cells], IM9 (human B lymphoblastoid cell line), Karpas-422 (human B cell lymphoma), Balm-3 (human non-Burkitt B-lymphoma cell line), U266 (human multiple myeloma), REH (Human B cell precursor leukemia), Ramos (synonym: RA 1; a human Burkittt's lymphoma B lymphoblast), MEC-1 (human chronic B cell leukemia). The same T cells were used to test autologous and allogeneic PBMC from healthy donors as controls.

[4] = test system: peptide-pulsed 51Cr-labelled T2 cells; assay: Cold target inhibition assay; assay type: cell-based, human
Source text: as §1
A cold target inhibition assay was performed. To examine whether ILR1-specific T cells lyse ILR1 peptide-pulsed T2 cells specifically and in the context of HLA-A*02, cold target inhibition assays were performed as follows: ^51Cr-labelled T2 cells were loaded with peptide in a concentration of 10 microgram peptide/10^6 T2 cells/ml. A total of 2×10^5 unlabelled, T2 cells, which had equally been loaded with the same or a control peptide, were then added in a volume of 50 microliter AIMV to 10^4 peptide-pulsed, ^51Cr-labelled T2 cells. Effector T cells specific for ILR1 were added and a ^51Cr-release assay was performed as described above.
A cold target inhibition assay was performed as described under “T2+ILR1” above.

[5] = test system: T cells of CLL patients (Binet A); assay: IL-10-secreting peptide-specific T cells in CLL patients with early disease; assay type: cell-based, human; conditions: small series of CLL patients with early disease (Binet A); data not shown
Source text: The inventors are currently involved with experiments to elucidate more precisely a possible relationship between the occurrence of anti-OFA/iLRP-specific T cells secreting IFN-γ or IL10 and the stage of disease in patients with CLL and multiple myeloma.

[6] = test system: PBMC of HLA-A*02 positive healthy donors; assay: IFN-γ ELISPOT, healthy donors; conditions: healthy donors, HLA-A*02 positive; one value per donor (table line); T cells cultured seven days with IL-2
Description: as §2, §3

[7] = hot target ILR1-peptide-pulsed T2, effectors ILR1-specific CTL, 10 microgram peptide/10^6 T2 cells/ml
[8] = hot target ILR2-peptide-pulsed T2, effectors ILR2-specific CTL

| Sequence | # of positively stained spots (IFN-γ ELISPOT) [1] | samples with significant (>20) CTL responses against peptide [1] | Evaluable donors with clearly positive T-cell responses [2] | Evaluable stimulations with clearly positive T-cell responses [2] | cytolytic activity of peptide-specific CTL lines [3] | recognition of cell lines by peptide-specific T cells [3] | competition of cold targets loaded with the peptide for lysis [4, 7] | competition of cold targets loaded with the peptide for lysis [4, 8] | IL-10-secreting T cells specific for the peptide [5] | # of positively stained spots (IFN-γ ELISPOT) [6] |
| --- | --- | --- | --- | --- | --- | --- | --- | --- | --- | --- |
| ALCNTDSPL (listed as Homo sapiens) [ILR2] | 0 per 105 PBMC (4×) and 1 per 105 PBMC (2×) and 3 per 105 PBMC (2×) and 34 per 105 PBMC (3×) and 27 per 105 PBMC and 23 per 105 PBMC and 112 per 105 PBMC | 43% | 1 | 1 | strong cytolytic activity | All cell lines except Ramos and MEC-1, which do not express the HLA-A*02 allele, and K562, which is deficient for HLA class I gene expression in general, were recognized | neither peptides irrelevant for ILR1-specific CTL (Survivin and ILR2), nor unloaded T2 cells, which display empty HLA-A*02 molecules on their cell surfaces, compete for lysis | compete with the primary target cells | no relevant IL-10-secreting T cells | 0 per 105 PBMC (5×) and 3 per 105 PBMC (2×) and 2 per 105 PBMC and 4 per 105 PBMC (3×) and 5 per 105 PBMC (2×) and 6 per 105 PBMC and 7 per 105 PBMC |
| LLAARAIVAI (listed as Homo sapiens) [ILR1] | 3 per 105 PBMC and 4 per 105 PBMC and 56 per 105 PBMC (2×) and 76 per 105 PBMC and 43 per 105 PBMC and 22 per 105 PBMC and 23 per 105 PBMC (2×) and 0 per 105 PBMC (2×) and 112 per 105 PBMC and 1 per 105 PBMC | 57% | 5 | 29 | strong cytolytic activity | All cell lines except MEC-1, which does not express the HLA-A*02 allele, and K562, which is deficient for HLA class I gene expression in general, were recognized | compete with the primary target cells | neither peptides irrelevant for ILR2-specific CTL (Survivin and ILR1), nor unloaded T2 cells, which display empty HLA-A*02 molecules on their cell surfaces, compete for lysis | no relevant IL-10-secreting T cells | 0 per 105 PBMC (5×) and 3 per 105 PBMC (2×) and 2 per 105 PBMC and 4 per 105 PBMC (3×) and 5 per 105 PBMC (2×) and 6 per 105 PBMC and 7 per 105 PBMC |
